Patent publication US12290519B2, “Anti-inflammatory coupling compound drug, and preparation method therefor and use thereof” (COVAL BIOPHARMA (SHANGHAI) CO., LTD., priority 2021, dated 2025)

assay: Hydrolysis rate / drug release rate of the compounds (release of JAK inhibitor, HPLC); assay type: physicochemical; settings: % release of JAK inhibitor from sample in acetonitrile/water=7/3 (v/v), 37° C. constant temperature shaker, sampled days 1-4, HPLC
Procedure, shortened: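 Compounds (about 5 mg per 20 mL) were dissolved in acetonitrile/water 7/3 (v/v) and held sealed at 37° C in a shaker, sampled on days 0, 1, 2, 3 and 4. Released JAK inhibitor was quantified by HPLC peak area against a 0.0002–0.08 mg/mL reference curve and expressed as % release corrected for molecular weights.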

Row | Structure (SMILES) | Release Rate (%/day)
1 | CC(=O)Nc1ccc(CC(=O)OCn2ccc3c(N(C)[C@H]4CN(C(=O)CC#N)CC[C@H]4C)ncnc32)cc1 [Ex. 59, (4-(((3R, 4R)-1-(2-cyanoacetyl)-4-methylpiperidin-3-yl) (methyl)amino)-7H-pyrrolo [2,3-d]pyrimidin-7-yl) methyl 2-(4-acetamidophenyl) acetate] | 0.15
2 | CNS(=O)(=O)CC1CCC(N(C)c2ncnc3c2ccn3C(=O)c2ccccc2Nc2cccc(Cl)c2C)CC1 (stereo not drawn) [Ex. 41, 1-((Trans)-4-((7-(2-((3-chloro-2-methylphenyl)amino)benzoyl)-7H-pyrrolo [2,3-d]pyrimidin-4-yl) (methyl)amino)cyclohexyl)-N-methyl methanesulfonamide] | 4.27
3 | CC(C(=O)OCn1ccc2c(-c3cnn([C@H](CC#N)C4CCCC4)c3)ncnc21)c1cccc(C(=O)c2ccccc2)c1 (stereo partly drawn) [Ex. 99, (4-(1-((R)-2-cyano-1-cyclopentylethyl)-1H-pyrazol-4-yl)-7H-pyrrolo [2,3-d]pyrimidin-7-yl) methyl 2-(3-benzoylphenyl) propanoate] | 0.21
4 | CC(=O)Nc1ccc(CC(=O)OCn2ccc3c(-c4cnn([C@H](CC#N)C5CCCC5)c4)ncnc32)cc1 [Ex. 110, (R)-(4-(1-(2-cyano-1-cyclopentylethyl)-1H-pyrazol-4-yl)-7H-pyrrolo [2,3-d]pyrimidin-7-yl) methyl 2-(4-acetamidophenyl) acetate] | 0.08
5 | CCC(C(=O)n1ccc2c(-c3cnn([C@H](CC#N)C4CCCC4)c3)ncnc21)c1ccc(N2Cc3ccccc3C2=O)cc1 (stereo partly drawn) [Ex. 34, (3R)-3-cyclopentyl-3-(4-(7-(2-(4-(1-oxoisoindolin-2-yl)phenyl)butanoyl)-7H-pyrrolo [2,3-d]pyrimidin-4-yl)-1H-pyrazol-1-yl) propanenitrile] | 1.57
6 | CCS(=O)(=O)N1CC(CC#N)(n2cc(-c3ncnc4c3ccn4C(=O)c3ccccc3Nc3cccc(Cl)c3C)cn2)C1 [Ex. 40, 2-(3-(4-(7-(2-((3-Chloro-2-methylphenyl)amino)benzoyl)-7H-pyrrolo [2,3-d]pyrimidin-4-yl)-1H-pyrazol-1-yl)-1-(ethylsulfonyl)azetidin-3-yl) acetonitrile] | 0.62
7 | CNS(=O)(=O)CC1CCC(N(C)c2ncnc3c2ccn3C(=O)C(C)c2cccc(C(=O)c3ccccc3)c2)CC1 (stereo not drawn) [Ex. 38, 1-((Trans)-4-((7-(2-(3-benzoylphenyl)propanoyl)-7H-pyrrolo [2,3-d]pyrimidin-4-yl) (methyl)amino)cyclohexyl)-N-methyl methanesulfonamide] | 18.42
8 | COc1ccc2cc([C@H](C)C(=O)OCn3ccc4c(-c5cnn([C@H](CC#N)C6CCCC6)c5)ncnc43)ccc2c1 [Ex. 87, (4-(1-((R)-2-cyano-1-cyclopentylethyl)-1H-pyrazol-4-yl)-7H-pyrrolo [2,3-d]pyrimidin-7-yl) methyl (S)-2-(6-methoxynaphthalen-2-yl) propanoate] | 0.01
9 | CC(C(=O)n1ccc2c(N(C)[C@H]3CN(C(=O)CC#N)CC[C@H]3C)ncnc21)c1ccc(CC2CCCC2=O)cc1 (stereo partly drawn) [Ex. 11, 3-((3R,4R)-4-methyl-3-(methyl (7-(2-(4-((2-oxocyclopentyl)methyl)phenyl)propanoyl)-7H-pyrrolo[2,3-d]pyrimidin-4-yl)amino)piperidin-1-yl)-3-oxopropanenitrile] | 9.17
10 | CCC(C(=O)n1ccc2c(-c3cnn(C4(CC#N)CN(S(=O)(=O)CC)C4)c3)ncnc21)c1ccc(N2Cc3ccccc3C2=O)cc1 (stereo not drawn) [Ex. 30, 2-2-(1-(Ethylsulfonyl)-3-(4-(7-(2-(4-(1-oxoisoindolin-2-yl)phenyl)butanoyl)-7H-pyrrolo [2,3-d]pyrimidin-4-yl)-1H-pyrazol-1-yl)azetidin-3-yl) acetonitrile] | 1.63
11 | C[C@@H]1CCN(C(=O)CC#N)C[C@@H]1N(C)c1ncnc2c1ccn2COC(=O)Cc1ccccc1Nc1c(Cl)cccc1Cl [Ex. 51, (4-(((3R, 4R)-1-(2-cyanoacetyl)-4-methylpiperidin-3-yl) (methyl)amino)-7H-pyrrolo [2,3-d]pyrimidin-7-yl) methyl 2-(2-((2,6-dichlorophenyl)amino)phenyl) acetate] | 0.35
12 | Cc1cccc(Nc2ccccc2C(=O)n2ccc3c(N(C)[C@H]4CN(C(=O)CC#N)CC[C@H]4C)ncnc32)c1C [Ex. 4, 3-((3R,4R)-3-((7-(2-((2,3-dimethylphenyl)amino)benzoyl)-7H-pyrrolo[2,3-d]pyrimidin-4-yl)(methyl)amino)-4-methylpiperidin-1-yl)-3-oxopropanenitrile] | 3.32
13 | CNS(=O)(=O)C[C@H]1CC[C@H](N(C)c2ncnc3c2ccn3COC(=O)[C@@H](C)c2ccc3cc(OC)ccc3c2)CC1 [Ex. 89, (4-(Methyl ((trans)-4-((N-methylsulfamoyl)methyl)cyclohexyl)amino)-7H-pyrrolo [2,3-d]pyrimidin-7-yl) methyl (S)-2-(6-methoxynaphthalen-2-yl) propanoate] | 0.16
14 | CNS(=O)(=O)C[C@H]1CC[C@H](N(C)c2ncnc3c2ccn3COC(=O)[C@@H](C)c2ccc(CC(C)C)cc2)CC1 [Ex. 88, (4-(Methyl ((trans)-4-((N-methylsulfamoyl)methyl)cyclohexyl)amino)-7H-pyrrolo [2,3-d]pyrimidin-7-yl) methyl (S)-2-(4-isobutylphenyl) propanoate] | 0.17
15 | CC[C@@H]1CN(C(=O)NCC(F)(F)F)C[C@@H]1c1cnc2cnc3c(ccn3C(=O)C(C)c3ccc(-c4ccccc4)c(F)c3)n12 (stereo partly drawn) [Ex. 125, (3S, 4R)-3-ethyl-4-(3-(2-(2-fluoro-[1, 1′-biphenyl]-4-yl)propanoyl)-3H-imidazo [1,2-a]pyrrolo [2,3-e]pyrazin-8-yl)-N-(2,2,2-trifluoroethyl) pyrrolidine-1-carboxamide] | 6.17
16 | CC(C(=O)OCn1ccc2c(N(C)[C@H]3CN(C(=O)CC#N)CC[C@H]3C)ncnc21)c1ccc(-c2ccccc2)c(F)c1 (stereo partly drawn) [Ex. 50, (4-(((3R, 4R)-1-(2-cyanoacetyl)-4-methylpiperidin-3-yl) (methyl)amino)-7H-pyrrolo [2,3-d]pyrimidin-7-yl) methyl 2-(2-fluoro-[1, 1′-biphenyl]-4-yl) propanoate] | 0.05
17 | CCC(C(=O)OCn1ccc2c(N(C)C3CCC(CS(=O)(=O)NC)CC3)ncnc21)c1ccc(N2Cc3ccccc3C2=O)cc1 (stereo not drawn) [Ex. 117, (4-(Methyl ((trans)-4-((N-methylsulfamoyl)methyl)cyclohexyl)amino)-7H-pyrrolo [2,3-d]pyrimidin-7-yl) methyl 2-(4-(1-)oxoisoindolin-2-yl) phenyl) butanoate] | 0.08
18 | CCc1cccc2c3c([nH]c12)C(CC)(CC(=O)OCn1ccc2c(-c4cnn(C5(CC#N)CN(S(=O)(=O)CC)C5)c4)ncnc21)OCC3 (stereo not drawn) [Ex. 85, Methyl (4-(1-(3-(cyanomethyl)-1-(ethylsulfonyl)azetidin-3-yl)-1H-pyrazol-4-yl)-7H-pyrrolo [2,3-d]pyrimidin-7-yl) 2-(1,8-diethyl-1,3,4,9-tetrahydropyrano [3,4-b]indol-1-yl) acetate] | 0.61
19 | CCS(=O)(=O)N1CC(CC#N)(n2cc(-c3ncnc4c3ccn4C(=O)C(C)c3cccc(C(=O)c4ccccc4)c3)cn2)C1 (stereo not drawn) [Ex. 19, 2-(3-(4-(7-(2-(3-benzoylphenyl)propanoyl)-7H-pyrrolo [2,3-d]pyrimidin-4-yl)-1H-pyrazol-1-yl)-1-(ethylsulfonyl)azetidin-3-yl) acetonitrile] | 6.25
20 | CNS(=O)(=O)CC1CCC(N(C)c2ncnc3c2ccn3C(=O)C(C)c2ccc(-c3ccccc3)c(F)c2)CC1 (stereo not drawn) [Ex. 36, 1-((Trans)-4-((7-(2-(2-fluoro-[1, 1′-biphenyl]-4-yl)propanoyl)-7H-pyrrolo [2,3-d]pyrimidin-4-yl) (methyl)amino)cyclohexyl)-N-methyl methanesulfonamide] | 14.98
21 | CC(=O)Oc1ccccc1C(=O)OCn1ccc2c(N(C)[C@H]3CN(C(=O)CC#N)CC[C@H]3C)ncnc21 [Ex. 56, (4-(((3R, 4R)-1-(2-cyanoacetyl)-4-methylpiperidin-3-yl) (methyl)amino)-7H-pyrrolo [2,3-d]pyrimidin-7-yl) methyl 2-acetoxybenzoate] | 0.07
22 | CCC(C(=O)OCn1ccc2c(-c3cnn([C@H](CC#N)C4CCCC4)c3)ncnc21)c1ccc(N2Cc3ccccc3C2=O)cc1 (stereo partly drawn) [Ex. 105, (4-(1-((R)-2-cyano-1-cyclopentylethyl)-1H-pyrazol-4-yl)-7H-pyrrolo [2,3-d]pyrimidin-7-yl) methyl 2-(4-(1-oxoisoindolin-2-yl)phenyl) butanoate] | 0.17
23 | CCc1cccc2c3c([nH]c12)C(CC)(CC(=O)OCn1ccc2c(N(C)[C@H]4CC[C@H](CS(=O)(=O)NC)CC4)ncnc21)OCC3 (stereo partly drawn) [Ex. 94, (4-(Methyl ((trans)-4-((N-methylsulfamoyl)methyl)cyclohexyl)amino)-7H-pyrrolo [2,3-d]pyrimidin-7-yl) methyl 2-(1,8-diethyl-1,3,4,9-tetrahydropyran [3,4-b]indol-1-yl) acetate] | 0.72
24 | Cc1c(Cl)cccc1Nc1ccccc1C(=O)OCn1ccc2c(-c3cnn([C@H](CC#N)C4CCCC4)c3)ncnc21 [Ex. 107, (R)-(4-(1-(2-cyano-1-cyclopentylethyl)-1H-pyrazol-4-yl)-7H-pyrrolo [2,3-d]pyrimidin-7-yl) methyl 2-((3-chloro-2-methylphenyl)amino) benzoate] | 0.22
